Test results as given in PubChem BioAssay (NCI).
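How tested: cells in 96-well plates exposed to compound for 48 hours at five concentrations. GI50 = concentration required for 50% inhibition of growth. TGI is the concentration that stops growth completely.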

How the values were obtained:
Test in all cases: inhibition of tumour cell growth, NCI panel, 48 h
[1] = system: SW-620 colon
[2] = system: COLO 205 colon
[3] = system: HOP-62 NSCLC
[4] = system: MALME-3M melanoma
[5] = system: SNB-75 CNS
[6] = system: TK-10 renal
[7] = system: UACC-62 melanoma
[8] = system: SK-MEL-2 melanoma
[9] = system: A549 NSCLC
[10] = system: OVCAR-8 ovarian
[11] = system: HT29 colon
[12] = system: DU-145 prostate
[13] = system: OVCAR-3 ovarian
[14] = system: IGROV1 ovarian
[15] = system: NCI-H23 lung
[16] = system: NCI/ADR-RES ovarian
[17] = system: UO-31 renal
[18] = system: NCI-H522 lung
[19] = system: ACHN renal
[20] = system: CAKI-1 renal
[21] = system: PC-3 prostate
[22] = system: OVCAR-4 ovarian
[23] = system: MDA-MB-231 breast
[24] = system: SF-539 CNS
[25] = system: NCI-H460 lung
[26] = system: BT-549 breast
[27] = system: RPMI-8226 leukemia
[28] = system: NCI-H226 lung
[29] = system: UACC-257 melanoma
[30] = system: MDA-MB-435
[31] = system: HCT-116 colon
[32] = system: SK-MEL-5 melanoma
[33] = system: M14 melanoma
[34] = system: LOX IMVI melanoma
[35] = system: SR leukemia
[36] = system: HCT-15 colon
[37] = system: SF-268 CNS
[38] = system: HL-60(TB) leukemia
[39] = system: SN12C renal
[40] = system: U251 CNS
[41] = system: MOLT-4 leukemia
[42] = system: K-562 leukemia
[43] = system: HOP-92 NSCLC
[44] = system: SK-OV-3 ovarian
[45] = system: HCC-2998 colon
[46] = system: KM12 colon
[47] = system: OVCAR-5 ovarian
[48] = system: A498 renal
[49] = system: SF-295 CNS
[50] = system: RXF 393 renal
[51] = system: SNB-19 CNS
[52] = system: 786-0 renal
[53] = system: EKVX NSCLC
[54] = system: CCRF-CEM leukemia
[55] = system: SK-MEL-28 melanoma
[56] = system: MCF7 breast
[57] = system: T-47D breast
[58] = system: HS 578T breast

Compound: COc1cccc(/C=N\NC(=O)c2ccncc2)c1O
- GI50 [1]: 7.48 µM
- TGI [1]: > 100 µM
- GI50 [2]: 4.9 µM
- TGI [2]: > 100 µM
- GI50 [3]: 5.36 µM
- TGI [3]: > 100 µM
- GI50 [4]: 6.62 µM
- TGI [4]: 88.3 µM
- GI50 [5]: 47.6 µM
- TGI [5]: > 100 µM
- GI50 [6]: 4.78 µM
- TGI [6]: > 100 µM
- GI50 [7]: 3.62 µM
- TGI [7]: 34.6 µM
- GI50 [8]: 53.2 µM
- TGI [8]: > 100 µM
- GI50 [9]: 11 µM
- TGI [9]: > 100 µM
- GI50 [10]: 4.54 µM
- TGI [10]: > 100 µM
- GI50 [11]: 21.5 µM
- TGI [11]: > 100 µM
- GI50 [12]: 5.13 µM
- TGI [12]: > 100 µM
- GI50 [13]: 4.61 µM
- TGI [13]: > 100 µM
- GI50 [14]: 6.98 µM
- TGI [14]: > 100 µM
- GI50 [15]: 5.28 µM
- TGI [15]: > 100 µM
- GI50 [16]: 2.84 µM
- TGI [16]: > 100 µM
- GI50 [17]: 2.36 µM
- TGI [17]: 56.8 µM
- GI50 [18]: 3.24 µM
- TGI [18]: > 100 µM
- GI50 [19]: 2.96 µM
- TGI [19]: > 100 µM
- GI50 [20]: 1.88 µM
- TGI [20]: 17.6 µM
- GI50 [21]: 8.01 µM
- TGI [21]: > 100 µM
- GI50 [22]: 2.43 µM
- TGI [22]: > 100 µM
- GI50 [23]: 7.61 µM
- TGI [23]: > 100 µM
- GI50 [24]: 6.07 µM
- TGI [24]: > 100 µM
- GI50 [25]: 3.63 µM
- TGI [25]: > 100 µM
- GI50 [26]: 4.48 µM
- TGI [26]: 68.3 µM
- GI50 [27]: 5.48 µM
- TGI [27]: > 100 µM
- GI50 [28]: 10.4 µM
- TGI [28]: > 100 µM
- GI50 [29]: 5 µM
- TGI [29]: > 100 µM
- GI50 [30]: 19.2 µM
- TGI [30]: > 100 µM
- GI50 [31]: 3.47 µM
- TGI [31]: > 100 µM
- GI50 [32]: 6.29 µM
- TGI [32]: 29 µM
- GI50 [33]: 4.68 µM
- TGI [33]: > 100 µM
- GI50 [34]: 2.2 µM
- TGI [34]: > 100 µM
- GI50 [35]: 2.98 µM
- TGI [35]: > 100 µM
- GI50 [36]: 2.87 µM
- TGI [36]: > 100 µM
- GI50 [37]: 3.47 µM
- TGI [37]: > 100 µM
- GI50 [38]: 2.27 µM
- TGI [38]: 8.73 µM
- GI50 [39]: 8.41 µM
- TGI [39]: > 100 µM
- GI50 [40]: 2.95 µM
- TGI [40]: > 100 µM
- GI50 [41]: 3.04 µM
- TGI [41]: > 100 µM
- GI50 [42]: 13.7 µM
- TGI [42]: > 100 µM
- GI50 [43]: 3.16 µM
- TGI [43]: > 100 µM
- GI50 [44]: 6.45 µM
- TGI [44]: > 100 µM
- GI50 [45]: 4.73 µM
- TGI [45]: > 100 µM
- GI50 [46]: 6.06 µM
- TGI [46]: > 100 µM
- GI50 [47]: 12.9 µM
- TGI [47]: > 100 µM
- GI50 [48]: 51.1 µM
- TGI [48]: > 100 µM
- GI50 [49]: 3.35 µM
- TGI [49]: 71.2 µM
- GI50 [50]: 5.49 µM
- TGI [50]: > 100 µM
- GI50 [51]: 6.72 µM
- TGI [51]: > 100 µM
- GI50 [52]: 3.53 µM
- TGI [52]: 30.6 µM
- GI50 [53]: 6.78 µM
- TGI [53]: > 100 µM
- GI50 [54]: 1.86 µM
- TGI [54]: > 100 µM
- GI50 [55]: 19.1 µM
- TGI [55]: > 100 µM
- GI50 [56]: 6.27 µM
- TGI [56]: > 100 µM
- GI50 [57]: 3.46 µM
- TGI [57]: > 100 µM
- GI50 [58]: > 100 µM
- TGI [58]: > 100 µM
